Experimental data taken from US7960131B2, “Functional genomic pore assay for mixed cell populations” (Wisconsin Alumni Research Foundation, priority 2003, dated 2011).
Several values for one entry are separate records, joined by “and”; a condition that tells them apart may be missing. Identical values can stand only once.

Experiments:
P2X7 = biological target: T1, P2X7 (Homo sapiens, UniProt Q99572); assay: YO-PRO-1 plate assay of P2X7 agonists with astrocytoma cell line 1321N1; format: cell-based; conditions: for YO-PRO-1 fluorescence (485/20, 528/20), single well: 5 × 10^4 1321N1 cells; for YO-PRO-1 fluorescence, average of duplicate wells: 1321N1 cells;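 as to all read-outs here: dye uptake read after 20 min agonist exposure with YO-PRO-1 present, unbound dye removed by washing before reading in a fluorescence plate reader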
T1 construct: host or cells: astrocytoma cell line (the earlier reading names it 1321N1)
T1 sequence (Q99572 1-595): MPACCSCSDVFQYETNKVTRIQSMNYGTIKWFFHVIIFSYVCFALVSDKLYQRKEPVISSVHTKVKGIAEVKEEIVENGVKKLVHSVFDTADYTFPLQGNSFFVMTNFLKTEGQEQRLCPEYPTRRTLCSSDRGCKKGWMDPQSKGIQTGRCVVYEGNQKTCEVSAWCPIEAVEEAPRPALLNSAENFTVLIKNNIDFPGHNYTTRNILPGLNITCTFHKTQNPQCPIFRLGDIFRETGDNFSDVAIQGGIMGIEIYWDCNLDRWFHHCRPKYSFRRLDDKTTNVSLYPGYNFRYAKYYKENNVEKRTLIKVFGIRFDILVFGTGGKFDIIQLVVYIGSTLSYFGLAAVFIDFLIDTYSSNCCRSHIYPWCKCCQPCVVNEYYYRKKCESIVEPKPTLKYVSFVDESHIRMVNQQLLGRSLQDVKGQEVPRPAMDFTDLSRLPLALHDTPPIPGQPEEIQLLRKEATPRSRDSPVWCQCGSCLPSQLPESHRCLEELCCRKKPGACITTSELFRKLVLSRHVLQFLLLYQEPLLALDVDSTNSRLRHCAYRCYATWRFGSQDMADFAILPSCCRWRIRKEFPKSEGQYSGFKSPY

[1] = tested on: animal model of severe sepsis; conditions: co-administration, mice; cited from earlier work

CSc1nc(N)c2ncn([C@@H]3O[C@H](COP(=O)(O)OP(=O)(O)OP(=O)(O)O)[C@@H](O)[C@H]3O)c2n1 [2MeSATP, 2-methylthio-adenosine 5′-triphosphate]
YO-PRO-1 fluorescence (485/20, 528/20), single well (P2X7; agent 3 μM + YOPRO): 109 and 102 | YO-PRO-1 fluorescence (485/20, 528/20), single well (P2X7; agent 10 μM + YOPRO): 144 | YO-PRO-1 fluorescence (485/20, 528/20), single well (P2X7; agent 30 μM + YOPRO): 157 and 154 | YO-PRO-1 fluorescence (485/20, 528/20), single well (P2X7; agent 100 μM + YOPRO): 155 and 170 | YO-PRO-1 fluorescence (485/20, 528/20), single well (P2X7; agent 300 μM + YOPRO): 168 and 162 | YO-PRO-1 fluorescence (485/20, 528/20), single well (P2X7; agent 1 mM + YOPRO): 161 and 164 | YO-PRO-1 fluorescence, average of duplicate wells (P2X7; 1 uM, agent + YOPRO): 105.5 | YO-PRO-1 fluorescence, average of duplicate wells (P2X7; 3 uM, agent + YOPRO): 144 | LPS-induced serum levels of TNF-alpha and IL-1 [1]: reductions in LPS-induced serum levels of TNF-alpha and IL-1 | protection from endotoxic death [1]: protects mice from endotoxic death

Nc1ncnc2c1ncn2[C@@H]1O[C@H](COP(=O)(O)OP(=O)(O)NP(=O)(O)O)[C@@H](O)[C@H]1O [AMPPNP, adenosine 5′(beta,gamma-imido)triphosphate]
YO-PRO-1 fluorescence (485/20, 528/20), single well (P2X7; agent 300 μM + YOPRO): 75 and 86

CN([C@@H](Cc1ccc(OS(=O)(=O)c2cccc3cnccc23)cc1)C(=O)N1CCN(c2ccccc2)CC1)S(=O)(=O)c1cccc2cnccc12 [KN62]
YO-PRO-1 fluorescence (485/20, 528/20), single well (P2X7; 1 mM ATP + KN62 1 μM + YOPRO): 185 and 177 | YO-PRO-1 fluorescence (485/20, 528/20), single well (P2X7; 1 mM ATP + KN62 3 μM + YOPRO): 181 and 176 | YO-PRO-1 fluorescence (485/20, 528/20), single well (P2X7; 1 mM ATP + KN62 10 μM + YOPRO): 159 | YO-PRO-1 fluorescence (485/20, 528/20), single well (P2X7; 1 mM ATP + KN62 30 μM + YOPRO): 155 and 153 | YO-PRO-1 fluorescence (485/20, 528/20), single well (P2X7; 1 mM ATP + KN62 100 μM + YOPRO): 148 | YO-PRO-1 fluorescence (485/20, 528/20), single well (P2X7; 1 mM ATP + KN62 300 μM + YOPRO): 152 and 165 | YO-PRO-1 fluorescence, average of duplicate wells (P2X7; 1 mM ATP + KN62 1 uM + YOPRO): 181 | YO-PRO-1 fluorescence, average of duplicate wells (P2X7; 1 mM ATP + KN62 3 uM + YOPRO): 178.5

O=c1ccn([C@@H]2O[C@H](COP(=O)(O)OP(=O)(O)OP(=O)(O)O)[C@@H](O)[C@H]2O)c(=O)[nH]1 [UTP]
YO-PRO-1 fluorescence (485/20, 528/20), single well (P2X7; agent 300 μM + YOPRO): 72 and 73

Nc1ncnc2c1ncn2[C@@H]1O[C@H](COP(=O)(O)CP(=O)(O)OP(=O)(O)O)[C@@H](O)[C@H]1O [ab-CH2-ATP]
YO-PRO-1 fluorescence (485/20, 528/20), single well (P2X7; agent 1 μM + YOPRO): 68 and 67 | YO-PRO-1 fluorescence (485/20, 528/20), single well (P2X7; agent 3 μM + YOPRO): 68 and 69 | YO-PRO-1 fluorescence (485/20, 528/20), single well (P2X7; agent 10 μM + YOPRO): 74 | YO-PRO-1 fluorescence (485/20, 528/20), single well (P2X7; agent 30 μM + YOPRO): 74 and 78 | YO-PRO-1 fluorescence (485/20, 528/20), single well (P2X7; agent 100 μM + YOPRO): 89 and 83 | YO-PRO-1 fluorescence (485/20, 528/20), single well (P2X7; agent 300 μM + YOPRO): 101 and 116 | YO-PRO-1 fluorescence, average of duplicate wells (P2X7; 1 uM, agent + YOPRO): 67.5 | YO-PRO-1 fluorescence, average of duplicate wells (P2X7; 3 uM, agent + YOPRO): 68.5
